Read-outs that look alike come from different tables or passages of the source.
Legend:
[1] = Electroconductivity in fluorinated solvent B (HFE7100/DMC 80:20); type: physicochemical; settings: for electroconductivity (result in words) / concentration at which maximum electroconductivity was obtained / maximum electroconductivity: solvent B: HFE7100/DMC 80:20; for improvement of electroconductivity: solvent B, versus LiN (SO2CF3)2
[2] = 1 M in PC; versus comparative example 8
[3] = solvent B: HFE7100/DMC 80:20; salt dissolved to 0.1 M
[4] = for improvement of electroconductivity by factor: solvent A, versus lithium bis-salicylate borate (comparative example 1)
[5] = 1 M in PC; platinum working electrode, lithium counter/reference; sweep 10 mV/sec
Excerpt: By use of these nonaqueous electrolytes, the respective oxidation decomposition potential values have been compared using the method described below.

Compound: lithium bis-benzenediolate [reference compound]
- electroconductivity (result in words) [1]: no electroconductivity has been measurable

Compound: Tetraethyl Ammonium Tetrakis (Trifluoroacetate) Borate [AB1]
- increase of potential window at the oxidation side [2]: 0.5 V

Compound: F[B-](F)(F)F.[Li+] [LiBF4, lithium tetrafluoroborate, reference compound]
- electroconductivity (result in words) [1]: no electroconductivity has been measurable
- phase behaviour of the solution [3]: the phase of the solvent has separated into two layers

Compound: CC(=O)O[B-](OC(C)=O)(OC(C)=O)OC(C)=O.[Li+] [LB4, Lithium Tetrakis (Acetate) Borate]
- electroconductivity of the nonaqueous electrolyte ([4]; solvent A: PC/DMC 1:2, at the dissolved concentration (about 0.1 M)): 0.02 mS/cm

Compound: Lithium Tetrakis (Trichloroacetate) Borate [LB3]
- potential from which significant changes in oxidation current are observed (oxidation decomposition potential) [5]: 6.4 V
- concentration at which maximum electroconductivity was obtained ([4]; solvent A: PC/DMC 1:2): 0.5 M
- maximum electroconductivity ([4]; solvent A: PC/DMC 1:2): 4.3 mS/cm
- improvement of electroconductivity by factor [4]: up to 10

Compound: Lithium Tetrakis (Pentafluoropropanoate) Borate [LB2]
- concentration at which maximum electroconductivity was obtained [1]: 0.6 M
- maximum electroconductivity [1]: 1.7 mS/cm
- improvement of electroconductivity [1]: 2.4 times
- potential from which significant changes in oxidation current are observed (oxidation decomposition potential) [5]: 6.5 V
- concentration at which maximum electroconductivity was obtained ([4]; solvent A: PC/DMC 1:2): 0.6 M
- maximum electroconductivity ([4]; solvent A: PC/DMC 1:2): 5.8 mS/cm
- improvement of electroconductivity by factor [4]: up to 13.4

Compound: O=C(O[B-](OC(=O)C(F)(F)F)(OC(=O)C(F)(F)F)OC(=O)C(F)(F)F)C(F)(F)F.[Li+] [LB1, Lithium Tetrakis (Trifluoroacetate) Borate]
- concentration at which maximum electroconductivity was obtained [1]: 0.8 M
- maximum electroconductivity [1]: 1.55 mS/cm
- improvement of electroconductivity [1]: 2.2 times
- potential from which significant changes in oxidation current are observed (oxidation decomposition potential) [5]: 6.7 V
- concentration at which maximum electroconductivity was obtained ([4]; solvent A: PC/DMC 1:2): 0.8 M
- maximum electroconductivity ([4]; solvent A: PC/DMC 1:2): 7.8 mS/cm
- improvement of electroconductivity by factor [4]: up to 18

Compound: O=S(=O)([N-]S(=O)(=O)C(F)(F)F)C(F)(F)F.[Li+] [LiN (SO2CF3)2, lithium bis-(trifluoromethanesulfonyl)imide, reference compound]
- concentration at which maximum electroconductivity was obtained [1]: 1 M
- maximum electroconductivity [1]: 0.69 mS/cm
- potential from which significant changes in oxidation current are observed (oxidation decomposition potential) [5]: 5.8 V

— patent publication US6824928B2, “Organic borate compounds and the nonaqueous electrolytes and lithium secondary batteries using the compounds” (Hitachi, Ltd., priority 2000, dated 2004)
